Experimental data published in PubChem BioAssay (NCI).
Several values for one entry are separate records, joined by “and”; a condition that tells them apart may be missing. Equal entries are not always repeated.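 96-well plates; 48 h exposure; 5 concentrations. Endpoints by linear interpolation between flanking doses. Not reached: highest tested concentration assigned. GI50 is the concentration that inhibits growth by half. TGI marks complete inhibition of growth.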

What was measured:
Assay in all cases: growth of human tumour cells (NCI), 48 h
SNB-19 CNS = tested on: SNB-19 CNS
MDA-MB-231 breast = tested on: MDA-MB-231 breast
SK-MEL-5 melanoma = tested on: SK-MEL-5 melanoma
786-0 renal = tested on: 786-0 renal
MALME-3M melanoma = tested on: MALME-3M melanoma
T-47D breast = tested on: T-47D breast
HOP-92 NSCLC = tested on: HOP-92 NSCLC
SN12C renal = tested on: SN12C renal
UO-31 renal = tested on: UO-31 renal
LOX IMVI melanoma = tested on: LOX IMVI melanoma

Compound	GI50 (SNB-19 CNS)	TGI (SNB-19 CNS)	GI50 (MDA-MB-231 breast)	TGI (MDA-MB-231 breast)	GI50 (SK-MEL-5 melanoma)	TGI (SK-MEL-5 melanoma)	GI50 (786-0 renal)	TGI (786-0 renal)	GI50 (MALME-3M melanoma)	GI50 (T-47D breast)	TGI (T-47D breast)	GI50 (HOP-92 NSCLC)	TGI (HOP-92 NSCLC)	GI50 (SN12C renal)	TGI (SN12C renal)	GI50 (UO-31 renal)	TGI (UO-31 renal)	GI50 (LOX IMVI melanoma)	TGI (LOX IMVI melanoma)	TGI (MALME-3M melanoma)
Cc1ccc(S(=O)(=O)Nc2nc3ccccc3nc2Nc2ccc3nsnc3c2)cc1	3.29 µM and 3.54 µM	> 100 µM	6.58 µM and 7.37 µM	26.6 µM and > 100 µM	2.65 µM and 1.88 µM	11.6 µM and 7.46 µM	3.65 µM	> 100 µM	2.18 µM and 1.34 µM	3.34 µM and 3.47 µM	> 100 µM	1.89 µM and 0.294 µM	8.23 µM and 3.73 µM	3.1 µM and 3.04 µM	46.8 µM and > 100 µM	1.94 µM and 1.58 µM	19 µM and 6.49 µM	3.67 µM and 3.89 µM	36.1 µM and > 100 µM	
O=C(/C=C/c1ccc(C(F)(F)F)cc1)c1ccc(Nc2nc(NCCO)nc(N3CCOCC3)n2)cc1			2.69 µM	9.74 µM	3.16 µM	10.2 µM	1.65 µM	3.1 µM	2.91 µM	2.28 µM	7.77 µM	2.48 µM	9.2 µM	2.22 µM	5.69 µM	1.31 µM	2.58 µM	1.67 µM	3.11 µM	10.2 µM
O=P1(O)c2ccccc2Nc2cc(C(F)(F)F)ccc21		> 100 µM		> 100 µM		> 100 µM		> 100 µM			> 100 µM		> 100 µM		> 100 µM		> 100 µM		> 100 µM	> 100 µM
C=C1CC[C@@H]2[C@](C)(COC(C)=O)[C@H](OC(C)=O)CC[C@@]2(C)[C@@H]1C/C=C1/C(=O)OC[C@H]1OC(C)=O	10.8 µM	24.5 µM	12.5 µM	27.1 µM	9.5 µM	22.4 µM	2.02 µM	4.34 µM	2.98 µM	2.86 µM	13.8 µM	13.2 µM	26.4 µM	3.07 µM	13.3 µM	1.91 µM	3.89 µM	1.42 µM	2.85 µM	7.95 µM
COc1cc(-c2oc3c(OC)c(O)c(OC)c(O)c3c(=O)c2OC)ccc1O		> 100 µM		> 100 µM		> 100 µM		> 100 µM			67.1 µM				> 100 µM		85.2 µM		> 100 µM	> 100 µM
COC(=O)[C@@]1(O)C[C@H]2O[C@]1(C)n1c3ccccc3c3c4c(c5c6ccccc6n2c5c31)C(=O)NC4	1.1 µM	4.05 µM	0.429 µM	2.88 µM			0.312 µM	1.67 µM	0.186 µM	0.0805 µM	2.05 µM	0.188 µM	0.88 µM	0.074 µM	2.15 µM	0.0256 µM	1.37 µM	0.197 µM	1.21 µM	1.52 µM
CCOC(=O)C#Cc1c(CC(=O)OCC)nnn1[C@H]1O[C@@H](CO)[C@@H]2OC(C)(C)O[C@@H]21	33.9 µM	> 100 µM	4.62 µM	16.1 µM	15 µM	28.4 µM	6.58 µM	19.6 µM	2 µM	2.78 µM	7.55 µM	3 µM	6.94 µM	3.06 µM	9.01 µM	2.82 µM	10.3 µM	1.35 µM	2.97 µM	4.16 µM
O=C1/C(=C/c2ccc(Cl)cc2)COc2ccc(O)c(O)c21	1.43 µM	2.95 µM	1.11 µM	3.25 µM	1.51 µM	2.9 µM	1.42 µM	5.17 µM	1.47 µM	1.2 µM	2.98 µM	2.01 µM	8.77 µM	0.724 µM	2.57 µM	0.458 µM	1.84 µM	0.33 µM	1.36 µM	3.47 µM
O=C1C(=O)c2ccccc2C(O)=C1CCCCCCCCC1CCCCC1		25.1 µM		17.3 µM		23.7 µM		18.9 µM			21.5 µM				22.3 µM		20.6 µM		15.8 µM	10.2 µM
CCCCCCCCCCCC[n+]1ccc(C(N)=O)cc1	1.82 µM	4.34 µM	2.91 µM	10.9 µM	1.63 µM	3.05 µM	3.33 µM	12.7 µM	2.59 µM	3.06 µM	11.8 µM			3.61 µM	12.6 µM	9.08 µM	24.7 µM	2.4 µM	13.2 µM	8.81 µM
CSC1C(=O)c2ccccc2/C(=N/Nc2nc3ccccc3s2)C1C (centres undefined)	19.9 µM	> 50 µM	7.79 µM	15.8 µM	1.6 µM	9.78 µM	10.1 µM	19.7 µM		8.65 µM	> 50 µM	7.93 µM	25.2 µM	7.26 µM	14.2 µM	6.02 µM	13.8 µM	5.62 µM	11.6 µM	
